Measured values taken from patent US11987557B2, “Phenalene-1-one-containing photosensitizer composition, phenalene-1-one compound and the use thereof” ([…], priority 2017, dated 2024).
Several values for one entry are separate records, joined by “and”; a condition that tells them apart may be missing. Identical values can stand only once.

Experiments:
[1] = test system: Staphylococcus aureus ATCC 25923; assay: Photodynamic inactivation of S. aureus on coated sample supports, LED 405 nm (Example 3); format: cell-based
Procedure: The photosensitizer was dissolved in the respective paint system and applied to various square sample supports (width: 4 cm, length: 4 cm, thickness: 3 mm) formed from PVC or PMMA and then dried. After drying the coating, a specific quantity of bacteria from the species Staphylococcus aureus ATCC 25923 was applied to the surface.
In this regard, firstly, an overnight (ON) culture of S. aureus in 5 mL of Mueller Hinton broth (Carl Roth GmbH+Co. KG, Karlsruhe, DE) was inoculated with a single colony from an agar plate and incubated at 37° C. and 180 rpm on a shaker for 18-20 hours.
On the day of the test, in each case 1 mL of ON culture was centrifuged (Hettich Universal 320 R centrifuge (Andreas Hettich GmbH & Co. KG, Tuttlingen, DE); swing-out rotor 1494; 10 Min, 3000 rpm, RT). The supernatant was discarded and the pellet was re-suspended in 1 mL of Milli-Q water, which is commercially available from Merck (KGaA, Darmstadt, DE) (designation “Milli-Q Integral Ultra-pure Water (Type 1)”).
After determining the optical density at 600 nm (“Specord 50 plus”, spectrometer, Analytik Jena), the re-suspended bacteria were diluted with Milli-Q-water to a cell count of 10^5 bacteria/mL. From the dilution, in each case 100 μL was dripped onto the sample support using a pipette (droplet size approximately 1 cm^2).
The sample support was then dried in air under a clean bench in the dark for approximately 2 hours, until water could no longer be seen on the surface.
The respective sample supports were irradiated with monochrome light at a wavelength of 405 nm with the aid of a LED module (test area 5×5 cm homogeneously illuminated; high power LEDs) or with room lighting (Osram Lumilux Cool White, colour temperature 4000 K) at the intensities and for the irradiation periods given below. Directly after irradiation, the bacteria were wiped from the surface of the respective sample support with a sterile cloth and re-suspended in 1 mL of Mueller-Hinton broth.
Next, the sample was serially diluted (1:10 dilution stages: 180+20 μL; to dilution stage 10^5).
For each dilution stage (100 to 10^−5), 3× respectively 20 μL of broth was dripped onto a Mueller-Hinton agar plate (Carl Roth GmbH+Co. KG) using a pipette, and spread. The agar plates were then incubated at 37° C. ON.
On the following day, the colonies from all of the dilution stages which could be counted of an experiment were counted and the CFU/mL was calculated.
Next, from the value for the CFU/mL, the log10 eradication rate was calculated. The reference point in each experiment was the reference control (=100% count of bacteria employed).
A test was composed of the following: • coated sample support: without photosensitizer, not irradiated (“reference control”) • coated sample support: with photosensitizer, not irradiated (“dark control”) • coated sample support: without photosensitizer and irradiated (“light control”) • coated sample support: with photosensitizer and irradiated (“sample”)
• Coated material: PMMA, 3 mm thickness, 4×4 cm • Drying time approximately 1 hour • Drying temperature 15-30° C. • Application with a spray gun • Concentration of photosensitizer used: […] (61.55 mg/L) Irradiation Conditions:
• Coated material: PVC, 3 mm thickness, 4×4 cm • Drying time approximately 2 hours • Drying temperature 15-30° C. • Relative humidity for the drying time 30-70% • Application with a spray gun • Concentration of photosensitizer used: […] (61.55 mg/L) Irradiation Conditions: […]

S. aureus [2] = assay: Phototoxic effect of coated surface in office lighting (Example 4); format: cell-based, Staphylococcus aureus; conditions: 2-C paint from Example 2.1, storage 24 h, illumination period 12 h
Procedure: In a subsequent test, the 2-C paint system was irradiated with room lighting. In this regard, the photoactive surfaces produced in Example 2.1 with the photosensitizers SAPN-19c and SAPN-19 were additionally stored exposed in areas with normal office lighting (standard fluorescent lights, Osram Cool White, 840) and the phototoxic action on S. aureus with the same pathogen counts as in Example 3 was analysed after specific periods. In this regard, the photoactive layers were distanced from the light source by approximately 40 cm. It was shown that for the photosensitizer SAPN-19c, after storage for 24 h under standard office lighting conditions with an illumination period of 12 h, that ail pathogens on the surface had been completely eradicated (approximately 5.5 log10 units, corresponding to >99.999% reduction).

S. aureus [3] = assay: Long-term test of photoactive stability after pre-irradiation (Example 5); format: cell-based, Staphylococcus aureus
Procedure: In order to test the stability of the lacks produced, a long term test was carried out.
The test surfaces were pre-irradiated for different time periods (5, 25, 50, 75 h) at an output of 5 mW cm^−2 in order to establish whether the respective photosensitizer in PUR was affected in a manner such that the phototoxic activity of the surface was reduced:
Following the pre-irradiation, the surfaces as described above were contaminated with S. aureus then irradiated for 2 h (corresponds to 5 mW cm^−2) and the phototoxic efficiency was measured.

Row | Compound | mean eradication of S. aureus ([1]; 1-C polyurethane paint, water-based, on PVC, LED 405 nm, 10 mW/cm^2, 10 minutes (6 J/cm^2), three independent tests) | eradication of S. aureus ([1]; 2-C polyurethane paint on PMMA, LED 405 nm, 0.7 mW/cm^2, after 20 minutes, two independent tests) | log10 reduction of S. aureus ([1]; 2-C polyurethane paint on PMMA, photosensitizer 200 μm (61.55 mg/L), LED 405 nm, 10 mW/cm^2, 2 minutes (1.2 J/cm^2), mean of 3 independent experiments) | extermination of S. aureus ([1]; 2-C polyurethane paint on PMMA, photosensitizer 200 μm (61.55 mg/L), LED 405 nm, 20 mW/cm^2, 2 minutes (2.4 J/cm^2)) | reduction of the bacteria involved ([1]; coating at 6 J/cm^2, equivalent of 3 log10 units) | eradication of pathogens on the surface (S. aureus [2]; standard office lighting (Osram Cool White, 840), approx. 40 cm) | reduction of pathogens on the surface (S. aureus [2]; standard office lighting) | phototoxic efficiency after pre-irradiation (S. aureus [3]; PUR surface pre-irradiated 5, 25, 50, 75 h at 5 mW cm^−2, then contaminated with S. aureus and irradiated 2 h) | state of the test surfaces after one month (S. aureus [3]; porphyrin-doped surfaces, after one month)
1 | CC(C)(O)c1cc[n+](CC2=Cc3cccc4cccc(c34)C2=O)cc1 [SAPN-19c] | 3.0 log10 units and 3 log10 units | 1.9 log10 units | 1.8 log10 | 2.7 log10 units | 99.9% | approximately 5.5 log10 units | > 99.999% | – | –
2 | OCCOCCOc1ccc(-c2c3nc(c(-c4ccccc4)c4ccc([nH]4)c(-c4ccccc4)c4nc(c(-c5ccccc5)c5ccc2[nH]5)C=C4)C=C3)cc1 [TPP sensitizer WBII/2] | – | – | – | – | – | – | – | noticeable reduction in the phototoxic efficiency | discoloured significantly and they lost phototoxic activity
